# From the NIST ThermoML archive (doi:10.1021/acs.jced.6b00829)
# ± gives the expanded uncertainty stated by the source.
# Experiments:
# [1] = 298.15 K; 101.33 kPa; Liquid; Vibrating tube method
# [2] = refractive index (Na D-line) (dimensionless); conditions: 298.15 K; 101.33 kPa; Liquid; Standard Abbe refractometry
mass density [1] [kg/m3],refractive index [2],Structure (SMILES)
1367.4 ± 2.1,1.4095 ± 0.0008,CCCCn1cc[n+](C)c1.F[P-](F)(F)(F)(F)F [1-butyl-3-methylimidazolium hexafluorophosphate]
,1.3325 ± 0.0008,O [water]
786.47 ± 2,1.3594 ± 0.0008,CCO [ethanol]
